In article PMC11882969 (Nature Communications, 2025):
“And” between values parts separate entries of the source, which are not always exact repeats. Equal values may be shown once.

Target: hCB1 (Homo sapiens, UniProt P21554)
Assay: bioSensAll ebBRET signaling profiling, hCB1
Format: cell-based
Parameters: host or cells: HEK293SL cells, transient PEI transfection
Conditions: for Gi1 hCB1 response: Gi1 biosensor; for Gi1 hCB1 / GoB hCB1: single replicate values, FigS6a

Chain of hCB1 (P21554 whole entry): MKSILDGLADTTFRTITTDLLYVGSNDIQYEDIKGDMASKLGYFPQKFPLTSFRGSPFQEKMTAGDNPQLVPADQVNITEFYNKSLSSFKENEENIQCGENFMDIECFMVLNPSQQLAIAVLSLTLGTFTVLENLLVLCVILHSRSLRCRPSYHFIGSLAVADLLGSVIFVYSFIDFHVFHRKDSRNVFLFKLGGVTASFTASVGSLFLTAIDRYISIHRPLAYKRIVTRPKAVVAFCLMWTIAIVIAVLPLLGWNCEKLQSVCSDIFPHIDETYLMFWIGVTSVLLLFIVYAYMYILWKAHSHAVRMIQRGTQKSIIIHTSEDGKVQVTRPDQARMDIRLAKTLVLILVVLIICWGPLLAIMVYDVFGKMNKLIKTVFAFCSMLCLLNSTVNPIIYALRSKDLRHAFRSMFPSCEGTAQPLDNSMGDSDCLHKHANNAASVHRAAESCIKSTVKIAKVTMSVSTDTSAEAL

COC(=O)[C@@H]1[C@@H]2CCC[C@@H]2CN1C(=O)c1cc(C)n(-c2cccc(C(F)(F)F)c2)n1 [‘6439]
Gi1 hCB1 response (Log [Compound] (M) -4.22186): 151.018 | Gi1 hCB1 response (Log [Compound] (M) -4.63927): 115.678 | Gi1 hCB1 response (Log [Compound] (M) -5.05788): 127.496 | Gi1 hCB1 response (Log [Compound] (M) -5.47381): 106.412 | Gi1 hCB1 response (Log [Compound] (M) -5.89285): 85.038 | Gi1 hCB1 response (Log [Compound] (M) -6.31878): 82.8446 | Gi1 hCB1 response (Log [Compound] (M) -6.72585): 60.217 | Gi1 hCB1 response (Log [Compound] (M) -7.14267): 58.225 | Gi1 hCB1 response (Log [Compound] (M) -7.55284): 19.617 | Gi1 hCB1 response (Log [Compound] (M) -8): 16.8865 | Gi1 hCB1 response (Log [Compound] (M) -8.22186): 14.8945 | Gi1 hCB1 response (Log [Compound] (M) -8.39794): 2.361 | Gi1 hCB1 response (Log [Compound] (M) -8.68787): 6.703 | Gi1 hCB1 response (Log [Compound] (M) -9.15521): 0.8614 | Gi1 hCB1 response (Log [Compound] (M) -9.61989): -7.912 | Gi1 hCB1 response (Log [Compound] (M) -10.0969): -33.897 | Gi1 hCB1 response (Log [Compound] (M) -10.5529): -6.905 | Gi1 hCB1 response (Log [Compound] (M) -11.0177): 0.7271 | Gi1 hCB1 response (Log [Compound] (M) -11.4949): -12.7913 | Gi1 hCB1 response (Log [Compound] (M) -11.9208): -11.6498 | Gi1 hCB1 response (Log [Compound] (M) -12.3979): -8.158 | Gi1 hCB1 response (Log [Compound] (M) -12.8861): -13.8656 | Gi1 hCB1 response (Log [Compound] (M) -13, individual replicate values): 6.815 and -3.369 | Gi1 hCB1 (Log [Compound] (M) -4.22186): 102.871 | GoB hCB1 (Log [Compound] (M) -4.22186): 99.959 | Gi1 hCB1 (Log [Compound] (M) -4.63927): 91.1085 | GoB hCB1 (Log [Compound] (M) -4.63927): 101.488 | Gi1 hCB1 (Log [Compound] (M) -5.05788): 91.2935 | GoB hCB1 (Log [Compound] (M) -5.05788): 96.0026 | Gi1 hCB1 (Log [Compound] (M) -5.47381): 93.4364 | GoB hCB1 (Log [Compound] (M) -5.47381): 100.139 | Gi1 hCB1 (Log [Compound] (M) -5.89285): 89.3202 | GoB hCB1 (Log [Compound] (M) -5.89285): 94.2762 | Gi1 hCB1 (Log [Compound] (M) -6.31878): 88.4414 | GoB hCB1 (Log [Compound] (M) -6.31878): 89.4207 | Gi1 hCB1 (Log [Compound] (M) -6.72585): 73.3178 | GoB hCB1 (Log [Compound] (M) -6.72585): 75.088 | Gi1 hCB1 (Log [Compound] (M) -7.14267): 49.9 | GoB hCB1 (Log [Compound] (M) -7.14267): 54.2273 | Gi1 hCB1 (Log [Compound] (M) -7.55284): 26.2355 | GoB hCB1 (Log [Compound] (M) -7.55284): 30.9029 | Gi1 hCB1 (Log [Compound] (M) -8): 8.645 | GoB hCB1 (Log [Compound] (M) -8): 13.9266 | Gi1 hCB1 (Log [Compound] (M) -8.22186): 5.331 | GoB hCB1 (Log [Compound] (M) -8.22186): 0.7628 | Gi1 hCB1 (Log [Compound] (M) -8.39794): 4.128 | GoB hCB1 (Log [Compound] (M) -8.39794): 8.262 | Gi1 hCB1 (Log [Compound] (M) -8.68787): 4.853 | GoB hCB1 (Log [Compound] (M) -8.68787): -0.2442 | Gi1 hCB1 (Log [Compound] (M) -9.15521): 1.029 | GoB hCB1 (Log [Compound] (M) -9.15521): -1.989 | Gi1 hCB1 (Log [Compound] (M) -9.61989): 0.2894 | GoB hCB1 (Log [Compound] (M) -9.61989): -0.46 | Gi1 hCB1 (Log [Compound] (M) -10.0969): -1.6068 | GoB hCB1 (Log [Compound] (M) -10.0969): -4.219 | Gi1 hCB1 (Log [Compound] (M) -10.5529): 0.5669 | GoB hCB1 (Log [Compound] (M) -10.5529): -0.6758
